Measured values taken from PubChem BioAssay AID602210 (Sanford-Burnham Center for Chemical Genomics, 2012).
Active and inactive are the calls of the source. The rule behind the calls is not given here.

Experiment: modulators of 2-deoxyglucose-induced H9c2 death, dose response, myocardial damage modulator project, cell-based, ATPlite luminescence, rat, set 2 (AID 602210)
Settings: H9c2 rat cardiomyoblasts, 2-deoxyglucose-induced death, 2 h

Structure (SMILES) | IC50
O=C(N/N=C/c1ccccn1)c1ccc(NC(=O)c2cccc([N+](=O)[O-])c2)cc1 | > 79 µM (inactive)
COc1ccc(CCn2c(=N)c(C(=O)NCC3CCCO3)cc3c(=O)n4cccc(C)c4nc32)cc1OC (stereo unspecified) | > 79 µM (inactive)
COc1cc(CN2C[C@@H](CO)O[C@@H](n3cnc4c(Nc5ccccc5)ncnc43)C2)cc(OC)c1OC | 17.5 µM (inactive)
COc1ccc(-c2ccc3c(c2)S(=O)(=O)c2cccc(C(=O)NC[C@@H]4CCCO4)c2C3=O)cc1OC | 13.4 µM (inactive)
COCCCN(Cc1ccco1)C(=O)Cn1ncc2c([nH]c3ccccc32)c1=O | 25.5 µM (inactive)
COc1ccccc1OCC(=O)Nc1cccc(-c2nnc(-c3ccco3)o2)c1 | > 79 µM (inactive)
CCOCCCNC(=O)CCC(=O)NNc1nc2ccccc2c2nc(-c3ccccc3)nn12 | 35.6 µM (inactive)
C=CCOC(=O)C1=C[C@H](c2cn(C(C)=O)c3ccccc23)C[C@H](OCc2ccc(CO)cc2)O1 | 21.5 µM (inactive)
CCCCn1nc(NC(=O)c2cccs2)c2cc3cc(OC)ccc3nc21 | > 79 µM (inactive)
CC1(c2ccccc2)NC(=O)N(CC(=O)Nc2cccc(/C=C/c3ccccn3)c2)C1=O (stereo unspecified) | 21.8 µM (inactive)
O=C(CSc1nnc(-c2ccccc2)n1Cc1ccccc1)NNC(=O)c1ccccc1O | > 79 µM (inactive)
Cc1ccc(NC(=O)c2nc[nH]c2C(=O)NCCCNC(=O)c2[nH]cnc2C(=O)Nc2ccc(C)cc2)cc1 | 1.33 µM
CC(=O)c1cccc(-c2cnc3c(NC=O)cc(-c4ccccc4F)cn23)c1 | 17.9 µM (inactive)
CC(=O)Nc1cc(-c2cccc(NS(C)(=O)=O)c2)cn2c(-c3cccc(C(C)=O)c3)cnc12 | 16.2 µM (inactive)
O=C(c1ccc(-c2nc3ccccc3s2)o1)N1CCN(c2ccccc2O)CC1 | 13.2 µM (inactive)
COc1cc(CCNc2ccc3nnc(-c4ccccc4)n3n2)cc(OC)c1OC | 30.6 µM (inactive)
NC(=O)c1nsc(C(=O)N(CCc2ccccc2)C(C(=O)NC2CCCC2)c2ccco2)c1N (stereo unspecified) | 25.8 µM (inactive)
O=CNc1cc(-c2ccc(C(=O)NC3CC3)cc2)cn2c(-c3ccc(F)c(Cl)c3)cnc12 | 17.2 µM (inactive)
Fc1ccc(-n2cc(-c3ccccc3)c3c(N4CCOCC4)ncnc32)cc1 | 6.7 µM
COc1cc(OC)cc(C(=O)Nc2ccc(-c3nc4ccccc4o3)cc2)c1 | 13.7 µM (inactive)
Cc1nc(N2CCN(c3ccccn3)CC2)c2c(C)c(C(=O)Nc3ccc(F)cc3)sc2n1 | 14.9 µM (inactive)
COc1ccc(-c2cnc3c(NC=O)cc(-c4cccc(NS(C)(=O)=O)c4)cn23)cc1OC | 13.4 µM (inactive)

Structure (SMILES) | IC50
COc1ccc(-n2c(/C=C/c3ccc(O)c(OC)c3)nc3ccccc3c2=O)cc1 | 8.14 µM
COc1cc(-c2cc(C(=O)N3CCN(c4ccccn4)CC3)c3ccccc3n2)cc(OC)c1OC | 26.2 µM (inactive)
CCN(C[C@H]1N[C@@](CC)(C(=O)OC)[C@H]2C(=O)N(Cc3ccccc3)C(=O)[C@@H]12)C(=O)c1ccc(C(C)(C)C)cc1 | 3.95 µM
CC(C)c1cc(N2CCN(C(=O)c3ccco3)CC2)n2c(nc3ccccc32)c1C#N | 44.7 µM (inactive)
CC(=O)c1ccc(-c2ccc(C(=O)Nc3nc(-c4ccccn4)cs3)o2)cc1 | 5.91 µM
CCOC(=O)c1c(C)[nH]c(C)c1C(=O)COc1ncnc2cc([N+](=O)[O-])ccc12 | 19.8 µM (inactive)
COc1ccccc1-c1cc(NC=O)c2ncc(-c3cccc(C(C)=O)c3)n2c1 | > 79 µM (inactive)
Cc1nn2c(-c3cccc(NC(=O)c4ccco4)c3)nnc2c2ccccc12 | 7.77 µM
COc1cccc(C(=O)Nc2cccc(-c3nnc(-c4ccco4)o3)c2)c1 | 12.6 µM (inactive)
COc1cc(OC)c(-c2nn3c(-c4ccco4)nnc3s2)cc1OC | 9.15 µM
COc1cccc(-c2cnc3c(NC=O)cc(-c4cccc(C(=O)N(C)C)c4)cn23)c1 | > 79 µM (inactive)
CC(=O)Nc1cccc(-c2cc(NC(C)=O)c3ncc(-c4ccccc4)n3c2)c1 | 12.2 µM (inactive)
COCCn1nnnc1CN(CCc1ccccc1)Cc1cc2cc(OC)ccc2[nH]c1=O | > 79 µM (inactive)
COc1cc(NC(=O)c2csc(-c3ccncc3)n2)cc(C(=O)Nc2cccc(C(F)(F)F)c2)c1 | 7.25 µM
O=c1c2ccccc2nc(CSc2ncnc3nc[nH]c23)n1-c1ccc(Cl)c(Cl)c1 | 14.7 µM (inactive)
O=S(=O)(c1ccccc1)N1CCN(c2nc(-c3cccnc3)nc3ccccc23)CC1 | 12 µM (inactive)
CCCN1C(=O)c2cc(C(=O)Nc3cccc(C(C)=O)c3)ccc2C1Nc1cccc(C(C)=O)c1 (stereo unspecified) | 13.7 µM (inactive)
O=C(COC(=O)c1cc(-c2cccnc2)nc2ccccc12)Nc1ccc(F)cc1F | 32.5 µM (inactive)
Cn1c2ccccc2c2cc(/C=N/NC(=O)c3cc(O)ccc3O)ccc21 | > 79 µM (inactive)
Nc1c(C(=O)NC2CC2)c2nc3ccccc3nc2n1-c1ccc2c(c1)OCO2 | > 79 µM (inactive)
COC(=O)c1ccc(OCC(=O)Nc2ccccc2C(=O)NC2CC2)cc1 | 11.2 µM (inactive)
NC(=O)c1nsc(C(=O)N(c2ccccc2)C(C(=O)NCc2ccc(F)cc2)c2ccc(O)cc2)c1N (stereo unspecified) | 9.29 µM

Structure (SMILES) | IC50
CC(=O)Nc1cc(-c2ccc(C(=O)N3CCOCC3)cc2)cn2c(-c3ccc(C(C)=O)cc3)cnc12 | 27.1 µM (inactive)
COc1cc(-c2cnc3c(NC=O)cc(-c4ccsc4)cn23)cc(OC)c1OC | 6.13 µM
CC(C)(C)C(=O)Nc1cccc(-c2nnc(-c3cccc(NC(=O)C(C)(C)C)c3)o2)c1 | 10.7 µM (inactive)
CCOc1ncccc1C(=O)Nc1cccc(-c2nc3cccnc3s2)c1 | 7 µM
Nc1c(C(=O)N/N=C/c2cccnc2)oc2nc(-c3ccco3)cc(-c3ccco3)c12 | 1.63 µM
COc1ccc(COc2cc(-c3cccc(OC)c3)nc3ccc(NC(=O)c4ccc(OC)cc4)cc23)cc1 | 4.21 µM
COCCn1cnc2c(c1=O)c1nc3ccccc3nc1n2/N=C/c1cccc(OC)c1 | > 79 µM (inactive)
CC(C)(C)NC(=O)c1cc(NC(=O)c2cccs2)cc(NC(=O)c2cccs2)c1 | 15.7 µM (inactive)
COc1cc(NC(=O)c2ccco2)c(C(=O)OCC(=O)c2c[nH]c3ccccc23)cc1OC | 6.43 µM
CNC(=O)c1ccc(-c2sc3nc(N4CCOCC4)c4c(c3c2N)CCCC4)o1 | > 79 µM (inactive)
Cc1nnc2ccc(-c3cccc(NC(=O)c4ccc(Cl)nc4)c3)nn12 | 45.9 µM (inactive)
COc1cc2c(C#CCCO)c(-c3ccsc3)oc(=O)c2cc1OC | 6.34 µM
Cc1ccc(-c2nnc(NCc3nc4ccccc4[nH]3)c3ccccc23)cc1S(=O)(=O)N1CCOCC1 | 11.3 µM (inactive)
Cc1cc(NC(=O)C2CCCCC2)nc2c1c(=O)oc1ccccc12 | 26.8 µM (inactive)
CC1Nc2ncnc(N3CCN(c4ccccc4)CC3)c2N(Cc2ccc(Cl)cc2)C1=O (stereo unspecified) | 21.4 µM (inactive)
CC1CN(c2nn3c(=O)c4ccccc4nc3c3ccccc23)CC(C)O1 (stereo unspecified) | > 79 µM (inactive)
COC(=O)c1ccccc1NC(=O)/C=C/c1cc(OC)c(OC)c(OC)c1 | > 79 µM (inactive)
CC(C)(C)OC(=O)C[C@H]1C/C=C\C[C@H](CC(=O)N[C@H](CO)Cc2ccccc2)C(=O)N[C@H](Cc2ccccc2)COC1=O | 59.9 µM (inactive)
COc1ccc(CCn2c(=O)c3cccnc3n(Cc3ccc([N+](=O)[O-])cc3)c2=O)cc1OC | 14.5 µM (inactive)
COc1ccc(Nc2nnc(SCc3cc(=O)n4ccsc4n3)s2)cc1 | 21.7 µM (inactive)
CCOC(=O)c1c(C)[nH]c(O)c1C=Nc1ccc(Cl)cc1 | 46.7 µM (inactive)
N#Cc1ccccc1S(=O)(=O)N1CCN(c2nc(-c3cccnc3)nc3ccccc23)CC1 | 8.75 µM

Structure (SMILES) | IC50
C[C@H](CO)N1C[C@H](C)[C@@H](CN(C)S(=O)(=O)c2ccccc2)Oc2ccc(NC(=O)Nc3ccccc3)cc2C1=O | 36.2 µM (inactive)
CC(C)OCCCNC(=O)CCC(=O)NNc1nc2ccccc2c2nc(-c3ccccc3)nn12 | 22.2 µM (inactive)
CCN(C[C@H]1N[C@@](Cc2ccccc2)(C(=O)OC)[C@H]2C(=O)N(C)C(=O)[C@@H]12)S(=O)(=O)c1ccc(OC)cc1 | > 79 µM (inactive)
COc1ccc(C(=O)COC(=O)Cn2[nH]c(=O)c3ccccc3c2=O)c(OC)c1 | 52.7 µM (inactive)
CC(=O)Nc1cc(-c2cccc(C(=O)N(C)C)c2)cn2c(-c3ccc(C(C)=O)cc3)cnc12 | 27.1 µM (inactive)
CCC(Oc1ccccc1)C(=O)Nc1ccccc1C(=O)N1CCCCC1 (stereo unspecified) | 36.4 µM (inactive)
CCOc1ccc2[nH]c(=O)c(CN(Cc3nnnn3Cc3ccco3)C3CCCCC3)cc2c1 | 9.18 µM
COC(=O)/C(=C(O)\C=C\c1ccccc1[N+](=O)[O-])c1nc2ccccc2[nH]1 | 13.5 µM (inactive)
COc1ccc(OC)c(NC(=O)COC(=O)c2c3c(nc4ccccc24)CCCC3)c1 | 7.78 µM
CCOC(=O)C1CCN(c2cc3c(cc2NC(=O)c2ccc(OC)c(OC)c2)n(C)c(=O)n3C)CC1 | 4.59 µM
CC(C)(C)NC(=O)c1cccc(NC(=O)c2ccc(NC(=O)c3ccco3)cc2)c1 | 18.9 µM (inactive)
CC1(C)CC(=O)C2=C(C1)N(CCN1CCOCC1)C1=C(C(=O)CC(C)(C)C1)C2c1ccc(Cl)cc1 | 39.1 µM (inactive)
Cc1cc(C)c(C)c(S(=O)(=O)N2CCN(C(=O)c3cc(=O)[nH]c4ccccc34)CC2)c1C | 5.01 µM
CCN(CC(=O)Nc1ccc(OC)cc1)C(=O)c1cc(-c2cccs2)nn1-c1ccccc1 | 7.55 µM
COC(=O)c1ccc2c(=O)[nH]c(COC(=O)c3[nH]c(C)c(C(C)=O)c3C)nc2c1 | 9.12 µM
C=CC[C@@H](CC(=O)N[C@H](CO)Cc1ccccc1)C(=O)N[C@@H](COC(=O)[C@@H](CC=C)CC(=O)OC(C)(C)C)Cc1ccccc1 | 45.4 µM (inactive)
CCOc1ccc(C(C(=O)NCC2CCCO2)N(C(=O)c2snc(C(N)=O)c2N)c2ccccc2F)cc1 (stereo unspecified) | 24 µM (inactive)
COc1ccc(-c2cc(NC(C)=O)c3ncc(-c4ccc(OC)c(OC)c4)n3c2)cc1OC | 14.8 µM (inactive)
COc1cc(/C=C/c2nc3ccccc3c(=O)n2-c2ccc(O)cc2)ccc1O | > 79 µM (inactive)
CC(C)(C)OC(=O)NCc1ccc(NC(=O)c2nc[nH]c2C(=O)NCCCCCCNC(=O)c2[nH]cnc2C(=O)Nc2ccc(CNC(=O)OC(C)(C)C)cc2)cc1 | > 79 µM (inactive)
